# The source made the active and inactive calls. The rule behind the calls is not given here.
# Tested on: CCRIS mutagenicity, Ames/micronucleus/aberration tests
# Test: CCRIS mutagenicity studies
# [1] = Test System: AMES SALMONELLA TYPHIMURIUM, Strain/Indicator: TA98, Metabolic Activation: NONE, Method: PREINCUBATION
# [2] = Test System: AMES SALMONELLA TYPHIMURIUM, Strain/Indicator: TA100, Metabolic Activation: NONE, Method: STANDARD PLATE
# [3] = Test System: AMES SALMONELLA TYPHIMURIUM, Strain/Indicator: TA98, Metabolic Activation: NONE, Method: STANDARD PLATE
# [4] = Test System: AMES SALMONELLA TYPHIMURIUM, Strain/Indicator: TA100, Metabolic Activation: RAT, LIVER, S-9, AROCLOR 1254, Method: STANDARD PLATE
# [5] = Test System: AMES SALMONELLA TYPHIMURIUM, Strain/Indicator: TA1535, Metabolic Activation: NONE, Method: STANDARD PLATE
# [6] = Test System: AMES SALMONELLA TYPHIMURIUM, Strain/Indicator: TA1535, Metabolic Activation: RAT, LIVER, S-9, AROCLOR 1254, Method: STANDARD PLATE
# [7] = Test System: AMES SALMONELLA TYPHIMURIUM, Strain/Indicator: TA1537, Metabolic Activation: NONE, Method: STANDARD PLATE
# [8] = Test System: AMES SALMONELLA TYPHIMURIUM, Strain/Indicator: TA1537, Metabolic Activation: RAT, LIVER, S-9, AROCLOR 1254, Method: STANDARD PLATE
# [9] = Test System: AMES SALMONELLA TYPHIMURIUM, Strain/Indicator: TA1538, Metabolic Activation: NONE, Method: STANDARD PLATE
# [10] = Test System: AMES SALMONELLA TYPHIMURIUM, Strain/Indicator: TA1538, Metabolic Activation: RAT, LIVER, S-9, AROCLOR 1254, Method: STANDARD PLATE
compound,measurement,setting,value
OCc1ccc2ccc3cccc4ccc1c2c34,mutagenic call,"Test System: AMES SALMONELLA TYPHIMURIUM, Strain/Indicator: TA98, Metabolic Activation: HUMAN, LIVER, CYTOSOL, PAPS, Method: PREINCUBATION",active; positive
same,mutagenic call,[1],inactive; negative
same,mutagenic call,"Test System: AMES SALMONELLA TYPHIMURIUM, Strain/Indicator: TA98, Metabolic Activation: RAT, LIVER, CYTOSOL, KCL, Method: PREINCUBATION",inactive; negative
same,mutagenic call,"Test System: AMES SALMONELLA TYPHIMURIUM, Strain/Indicator: TA98, Metabolic Activation: RAT, LIVER, CYTOSOL, PAPS, KCL, Method: PREINCUBATION",active; positive
same,mutagenic call,"Test System: AMES SALMONELLA TYPHIMURIUM, Strain/Indicator: TA98, Metabolic Activation: RAT, LIVER, CYTOSOL, PAPS, Method: PREINCUBATION",active; positive
same,mutagenic call,"Test System: AMES SALMONELLA TYPHIMURIUM, Strain/Indicator: TA98, Metabolic Activation: RAT, LIVER, PAPS, KCL, Method: PREINCUBATION",inactive; negative
same,mutagenic call,"Test System: AMES SALMONELLA TYPHIMURIUM, Strain/Indicator: TA98, Metabolic Activation: RAT, LIVER, S-9, NADPH, Method: PREINCUBATION",active; positive
same,mutagenic call,"Test System: UDS CHINESE HAMSTER V-79 CELLS, Metabolic Activation: NONE, Method: AUTORADIOGRAPHY",active; positive
same,mutagenic call,"Test System: UDS CHINESE HAMSTER V-79 CELLS, Strain/Indicator: V-79-MZ/CYTIDINE INCORPORATION, Metabolic Activation: NONE, Method: AUTORADIOGRAPHY",inactive; negative
same,mutagenic call,"Test System: UDS CHINESE HAMSTER V-79 CELLS, Strain/Indicator: V-79-RHST20/CYTIDINE INCORPORATION, Metabolic Activation: NONE, Method: AUTORADIOGRAPHY",active; positive
same,mutagenic call,"Test System: UDS CHINESE HAMSTER V-79 CELLS, Strain/Indicator: V-79-RHSTA/CYTIDINE INCORPORATION, Metabolic Activation: NONE, Method: AUTORADIOGRAPHY",active; positive
same,mutagenic call,"Test System: UDS CHINESE HAMSTER V-79 CELLS, Strain/Indicator: V-79-RPST-IV/CYTIDINE INCORPORATION, Metabolic Activation: NONE, Method: AUTORADIOGRAPHY",active; positive
ClN1C2c3ccccc3-c3ccccc3C21 (stereo not drawn),mutagenic call,[2],active; positive
same,mutagenic call,"Test System: CHINESE HAMSTER V-79, Strain/Indicator: V-79/6-THIOGUANINE, Metabolic Activation: NONE, Method: STANDARD PLATE",active; positive
CC12CCC(CC1)C(C)(C)O2,mutagenic call,"End Point: IN VITRO CHROMOSOMAL ABERRATIONS, Test System: CHINESE HAMSTER OVARY CELLS, Metabolic Activation: NONE",inactive; negative; precipitation occurred at 663 ug/ml
same,mutagenic call,"End Point: IN VITRO CHROMOSOMAL ABERRATIONS, Test System: CHINESE HAMSTER OVARY CELLS, Metabolic Activation: RAT, LIVER, S-9, AROCLOR 1254",inactive; negative; precipitation occurred at all doses
same,mutagenic call,"Test System: AMES SALMONELLA TYPHIMURIUM, Strain/Indicator: TA97A, Metabolic Activation: NONE, Method: STANDARD PLATE",inactive; negative
same,mutagenic call,"Test System: AMES SALMONELLA TYPHIMURIUM, Strain/Indicator: TA97A, Metabolic Activation: RAT LIVER S-9, AROCLOR 1254, Method: STANDARD PLATE",inactive; negative
same,mutagenic call,[3],inactive; negative
same,mutagenic call,"Test System: AMES SALMONELLA TYPHIMURIUM, Strain/Indicator: TA98, Metabolic Activation: RAT LIVER S-9, AROCLOR 1254, Method: STANDARD PLATE",inactive; negative
same,mutagenic call,[2],inactive; negative
same,mutagenic call,"Test System: AMES SALMONELLA TYPHIMURIUM, Strain/Indicator: TA100, Metabolic Activation: RAT LIVER S-9, AROCLOR 1254, Method: STANDARD PLATE",inactive; negative
same,mutagenic call,"Test System: AMES SALMONELLA TYPHIMURIUM, Strain/Indicator: TA102, Metabolic Activation: NONE, Method: STANDARD PLATE",inactive; negative
same,mutagenic call,"Test System: AMES SALMONELLA TYPHIMURIUM, Strain/Indicator: TA102, Metabolic Activation: RAT LIVER S-9, AROCLOR 1254, Method: STANDARD PLATE",inactive; negative
same,mutagenic call,"Test System: E. coli, Strain/Indicator: WP2 IC185 trpE65, Metabolic Activation: None, Method: Plate incorporation",inactive; negative
same,mutagenic call,"Test System: E. coli, Strain/Indicator: WP2 IC202 trpE65 oxyR/pKM101, Metabolic Activation: None, Method: Plate incorporation",inactive; negative
N=C1CCC(=N)c2c1c(O)c1ccccc1c2O,mutagenic call,[3],inactive; negative
same,mutagenic call,[2],inactive; negative
same,mutagenic call,[4],inactive; negative
same,mutagenic call,[5],inactive; negative
same,mutagenic call,[6],inactive; negative
same,mutagenic call,[7],active; positive
same,mutagenic call,[8],active; positive
same,mutagenic call,[9],inactive; negative
same,mutagenic call,[10],inactive; negative
O=C(O)[C@@H]1Cc2c([nH]c3ccccc23)[C@H]([C@H]2CCNC2=S)N1,mutagenic call,"Test System: AMES SALMONELLA TYPHIMURIUM, Strain/Indicator: TA98, Metabolic Activation: NONE",inactive; negative
same,mutagenic call,"Test System: AMES SALMONELLA TYPHIMURIUM, Strain/Indicator: TA98, Metabolic Activation: S-9",inactive; negative
same,mutagenic call,"Test System: AMES SALMONELLA TYPHIMURIUM, Strain/Indicator: TA100, Metabolic Activation: NONE",inactive; negative
same,mutagenic call,"Test System: AMES SALMONELLA TYPHIMURIUM, Strain/Indicator: TA100, Metabolic Activation: S-9",inactive; negative
CCCCCCCC/C=C\CCCCCCCCN (tested in a mixture with another compound),mutagenic call,[3],inactive; negative
same,mutagenic call,"Test System: AMES SALMONELLA TYPHIMURIUM, Strain/Indicator: TA98, Metabolic Activation: RAT, LIVER, S-9, AROCLOR 1254, Method: STANDARD PLATE",active; positive
same,mutagenic call,[2],inactive; negative
same,mutagenic call,[4],inactive; negative
same,mutagenic call,[5],inactive; negative
same,mutagenic call,[6],inactive; negative
same,mutagenic call,[7],inactive; negative
same,mutagenic call,[8],inactive; negative
same,mutagenic call,[9],inactive; negative
same,mutagenic call,[10],active; positive
CNc1ccc2ncc(C)nc2c1N,mutagenic call,[1],inactive; negative
same,mutagenic call,"Test System: AMES SALMONELLA TYPHIMURIUM, Strain/Indicator: TA98, Metabolic Activation: RAT, LIVER, S-9, AROCLOR 1254, Method: PREINCUBATION",inactive; negative
same,mutagenic call,"Test System: AMES SALMONELLA TYPHIMURIUM, Strain/Indicator: TA100, Metabolic Activation: NONE, Method: PREINCUBATION",inactive; negative
same,mutagenic call,"Test System: AMES SALMONELLA TYPHIMURIUM, Strain/Indicator: TA100, Metabolic Activation: RAT, LIVER, S-9, AROCLOR 1254, Method: PREINCUBATION",inactive; negative

# Source: PubChem BioAssay AID1259407 (Chemical Carcinogenesis Research Information System (CCRIS), 2018)
